Drawing on US20250025443A1, “COMPOUNDS AND METHODS FOR TREATING CORONA VIRUSES” (CLEAR CREEK BIO, INC., priority 2021, published 2025), this text covers IC50 for 24 compounds.

For the assay, the target named is SARS-CoV-2 Papain-Like Protease (PLpro) (Severe acute respiratory syndrome coronavirus 2 (2019-nCoV) (SARS-CoV-2), UniProt P0DTD1). Briefly: biochemical. As to conditions: PLpro enzymatic fluorescence assay; class symbols; read-out: PLpro IC50.
In general, IC50 refers to the midpoint of a concentration-inhibition curve. As to `Cc1ccc(OC[C@@H]2CCN2C)cc1C(=O)NC1(c2cc(C#CC(F)(F)F)cc3ncccc23)CC1` [Compound 803, (S)-2-Methyl-5-((1-methylazetidin-2-yl)methoxy)-N-(1-(7-(3,3,3-trifluoroprop-1-yn-1-yl)quinolin-5-yl)cyclopropyl)benzamide], the half-maximal inhibitory concentration (IC50) was less than 100 nM.
Take `[2H]C1([2H])C([2H])([2H])C1(NC(=O)c1cc(OC[C@@H]2CCN2C)ccc1C)c1cc(OC)cc2nc(C)ccc12` [Compound 804, (S)—N-(1-(7-Methoxy-2-methylquinolin-5-yl)cyclopropyl-2,2,3,3-d)-2-methyl-5-((1-methylazetidin-2-yl)methoxy)benzamide]: the IC50 is less than 100 nM.
Then `Cc1ccc(OC[C@@H]2CCN2C)cc1C(=O)NC1(c2cc(-c3ccc(CN4CCC(F)(F)C4)s3)cc3ncccc23)CC1` [Compound 805, (S)—N-(1-(7-(5-((3,3-Difluoropyrrolidin-1-yl)methyl)thiophen-2-yl)quinolin-5-yl)cyclopropyl)-2-methyl-5-((1-methylazetidin-2-yl)methoxy)benzamide], with less than 100 nM; and `CC(=O)c1ncc(-c2cc(C3(NC(=O)c4cc(OC[C@@H]5CCN5C)ccc4C)CC3)c3cccnc3c2)o1` [Compound 806, (S)-N-(1-(7-(2-Acetyloxazol-5-yl)quinolin-5-yl)cyclopropyl)-2-methyl-5-((1-methylazetidin-2-yl)methoxy)benzamide], with less than 100 nM; and `Cc1ccc(-c2cc(C3(NC(=O)c4cc(OC[C@@H]5CCN5C)ccc4C)COC3)c3cccnc3c2)o1` [Compound 808], with less than 100 nM.
With `Cc1ccc2c(C3(NC(=O)c4cc(OC[C@@H]5CCN5C)ccc4C)CC3)cc(O)cc2n1` [Compound 809, (S)-N-(1-(7-Hydroxy-2-methylquinolin-5-yl)cyclopropyl)-2-methyl-5-((1-methylazetidin-2-yl)methoxy)benzamide], the IC50 is less than 100 nM.
The result for `Cc1ccc2c(C3(NC(=O)c4cc(OC[C@@H]5CCN5C)ccc4C)CC3)cc(N3CC(C(F)(F)F)C3)cc2n1` [Compound 810, (S)-2-Methyl-N-(1-(2-methyl-7-(3-(trifluoromethyl)azetidin-1-yl)quinolin-5-yl)cyclopropyl)-5-((1-methylazetidin-2-yl)methoxy)benzamide] reads less than 100 nM; that for `COC1CN(c2cc(C3(NC(=O)c4cc(OC[C@@H]5CCN5C)ccc4C)CC3)c3ccc(C)nc3c2)C1` [Compound 811, (S)—N-(1-(7-(3-Methoxyazetidin-1-yl)-2-methylquinolin-5-yl)cyclopropyl)-2-methyl-5-((1-methylazetidin-2-yl)methoxy)benzamide], less than 100 nM.
The result for `Cc1nc(Cl)c(-c2cc(C3(NC(=O)c4cc(OC[C@@H]5CCN5C)ccc4C)CC3)c3cccnc3c2)s1` [Compound 812, (S)-N-(1-(7-(4-Chloro-2-methylthiazol-5-yl)quinolin-5-yl)cyclopropyl)-2-methyl-5-((1-methylazetidin-2-yl)methoxy)benzamide] reads less than 100 nM.
Then `C=Cc1cc(C2(NC(=O)c3cc(OC[C@@H]4CCN4C)ccc3C)CC2)c2ccc(C)nc2c1` [Compound 813, (S)-2-Methyl-N-(1-(2-methyl-7-vinylquinolin-5-yl)cyclopropyl)-5-((1-methylazetidin-2-yl)methoxy)benzamide], with less than 100 nM; and `Cc1ncc(-c2cc(C3(NC(=O)c4cc(OC[C@@H]5CCN5C)ccc4C)CC3)c3cccnc3c2Cl)s1` [Compound 814, (S)-N-(1-(8-Chloro-7-(2-methylthiazol-5-yl)quinolin-5-yl)cyclopropyl)-2-methyl-5-((1-methylazetidin-2-yl)methoxy)benzamide], with less than 100 nM.
Consider `Cc1ccc2c(C3(NC(=O)c4cc(OC[C@@H]5CCN5C)ccc4C)CC3)cc(CCC(F)(F)F)cc2n1` [Compound 815, (S)-2-Methyl-N-(1-(2-methyl-7-(3,3,3-trifluoropropyl)quinolin-5-yl)cyclopropyl)-5-((1-methylazetidin-2-yl)methoxy)benzamide], for which the IC50 was less than 100 nM.
In the case of `Cc1ccc2c(C3(NC(=O)c4cc(OC[C@@H]5CCN5C)ccc4C)CC3)cc(N3CC(F)C3)cc2n1` [Compound 816, (S)—N-(1-(7-(3-Fluoroazetidin-1-yl)-2-methylquinolin-5-yl)cyclopropyl)-2-methyl-5-((1-methylazetidin-2-yl)methoxy)benzamide], the IC50 is less than 100 nM.
On to `COc1cc(C2(NC(=O)c3cc(OC[C@@H]4CCN4C)ccc3C)CC2)c2ccc(C(F)(F)F)nc2c1` [Compound 817, (S)-N-(1-(7-Methoxy-2-(trifluoromethyl)quinolin-5-yl)cyclopropyl)-2-methyl-5-((1-methylazetidin-2-yl)methoxy)benzamide], for which the IC50 was less than 100 nM.
The result for `Cc1ccc(OC[C@@H]2CCN2C)cc1C(=O)NC1(c2cc(N(C)S(C)(=O)=O)cc3ncccc23)CC1` [Compound 818, (S)-2-Methyl-5-((1-methylazetidin-2-yl)methoxy)-N-(1-(7-(N-methylmethylsulfonamido)quinolin-5-yl)cyclopropyl)benzamide] reads less than 100 nM; that for `Cc1ccc2c(C3(NC(=O)c4cc(OC[C@@H]5CCN5C)ccc4C)CC3)cc(N(C)S(C)(=O)=O)cc2n1` [Compound 819, (S)-2-Methyl-N-(1-(2-methyl-7-(N-methylmethylsulfonamido)quinolin-5-yl)cyclopropyl)-5-((1-methylazetidin-2-yl)methoxy)benzamide], less than 100 nM; that for `CC(=O)c1ccc(-c2cc(C3(NC(=O)c4cc(OC[C@@H]5CCN5C)ccc4C)COC3)c3cccnc3c2)s1` [Compound 821, (S)-N-(3-(7-(5-Acetylthiophen-2-yl)quinolin-5-yl)oxetan-3-yl)-2-methyl-5-((1-methylazetidin-2-yl)methoxy)benzamide], less than 100 nM.
Then `Cc1ccc2c(C3(NC(=O)c4cc(OC[C@@H]5CCN5C)ccc4C)CC3)cc(OCF)cc2n1` [Compound 823, (S)—N-(1-(7-(Fluoromethoxy)-2-methylquinolin-5-yl)cyclopropyl)-2-methyl-5-((1-methylazetidin-2-yl)methoxy)benzamide], with less than 100 nM.
On to `CC#Cc1cc(C2(NC(=O)c3cc(OC[C@@H]4CCN4C)ccc3C)CC2)c2ccc(C)nc2c1` [Compound 824, (S)-2-Methyl-N-(1-(2-methyl-7-(prop-1-yn-1-yl)quinolin-5-yl)cyclopropyl)-5-((1-methylazetidin-2-yl)methoxy)benzamide], for which the IC50 was less than 100 nM.
For `Cc1ccc2c(C3(NC(=O)c4cc(OC[C@@H]5CCN5C)ccc4C)CC3)cc(NS(C)(=O)=O)cc2n1` [Compound 825, (S)-2-Methyl-N-(1-(2-methyl-7-(methylsulfonamido)quinolin-5-yl)cyclopropyl)-5-((1-methylazetidin-2-yl)methoxy)benzamide], the IC50 is less than 100 nM.
Then `Cc1ccc2c(C3(NC(=O)c4cc(OC[C@@H]5CCN5C)ccc4C)CC3)cc(NCC(F)(F)F)cc2n1` [Compound 826, (S)-2-Methyl-N-(1-(2-methyl-7-((2,2,2-trifluoroethyl)amino)quinolin-5-yl)cyclopropyl)-5-((1-methylazetidin-2-yl)methoxy)benzamide], with less than 100 nM; and “(S)-2-Methyl-N-(1-(2-methyl-7-((2,2,2-trifluoroethyl)amino)quinolin-5-yl)cyclopropyl)-5-((1-methylazetidin-2-yl)methoxy)benzamide [Compound 807]”, with less than 100 nM; and “(S)-5-(Azetidin-2-ylmethoxy)-2-methyl-N-(1-(7-morpholinoquinolin-5-yl)cyclopropyl)benzamide [Compound 712]”, with less than 100 nM.
The result for “(S)—N-(1-(7-Methoxy-2-methylquinolin-5-yl)cyclopropyl)-2-methyl-5-((1-(methyl-d3)azetidin-2-yl)methoxy)benzamide [Compound 798]” reads less than 100 nM.
